These results are taken from patent US20240226041A1, “METHODS AND COMPOSITIONS FOR TREATMENT OF NEUROPATHIC PAIN USING STAT3 INHIBITORS” (priority 2021, published 2024).

In one data set the target is T1, STAT3βtr (Homo sapiens, UniProt P40763).
T1 construct: STAT3 (127-722) cDNA was cloned into a pET15b vector; made in house; host or cells: E. coli BL21 (DE), pET15b
Kind of data set: STAT3 alkylation study, targeted LC-MS/MS (MRM, QTrap 5500) of tryptic digests. It is filed as biochemical. The conditions noted are these: for number of STAT3βtr peptides alkylated: natively folded STAT3βtr, conditions optimal for alkylation, LC-MS/MS of tryptic digest. From the text:
To examine if this was a possibility, recombinant STAT3 was generated post-translationally unmodified in bacteria using a cDNA construct in which the domain containing the N-terminal oligomerization domain was deleted (STAT3βtr); this domain is not necessary for native folding of the core domains of STAT3 (CCD, DBD, linker domain, and SH2 domain) and its removal markedly improves recombinant STAT3 protein solubility. STAT3βtr contains 11 Cys residues. To determine how many of these Cys residues are available to be alkylated when soluble protein is natively folded, we incubated STAT3βtr with two protein alkylating agents, iodoacetamide and N-ethylmaleimide (NEM) under conditions optimal for alkylation (FIG. 11A-11B). […] The identity of the peptides were confirmed by performing full MS/MS spectra on the detected transitions. […] Five of the peptides contained a single alkylated Cys, while one of the peptides contained two alkylated Cys residues.
Expression and purification of recombinant STAT3. STAT3 (127-722) cDNA was cloned into a pET15b vector and transformed in BL21 (DE) (Life Technologies, Inc. Woburn, MA) Expression of the recombinant protein was inducing by 0.5 mM IPTG, at 20° C. for 5 hr. The recombinant STAT3 protein was purified by ammonium sulfate precipitation followed by an ion exchange step with HiTrap Q columns (GE Healthcare Bio-Sciences, Uppsala Sweden) and size exclusion chromatography to achieve purity of over 98%.
STAT3 alkylation studies. Purified recombinant core fragment of STAT3β protein in ammonium bicarbonate buffer (10 μM) was mixed with each compound at a final concentration of 100 μM. The protein mixture was then incubated at 37° C. overnight. Samples were reduced with 5 mM DTT at 37 °C for one hour and further alkylated with iodoacetamide (15 mM) for 30 minutes at RT in the dark, followed by digestion with trypsin gold in a dry incubator at 37° C. overnight. Formic acid was added the next day to 5% and each protein sample was diluted in 5 mM ammonium acetate containing 0.5% formic acid immediately prior to analysis by Targeted Mass Spectrometry Multiple Reaction Monitoring (MRM).
LC-MS/MS. A QTRAP 5500 Sciex hybrid quadrupole-linear ion trap system with a TurboIonSpray ion source in positive mode and equipped with a Sciex LC Exion liquid chromatography system was used to analyze tryptic digests of STAT3 protein samples treated with STAT3 inhibitors. Fractionation of the samples was done using a Waters Symmetry C18 column (100 Å, 3.5 μm, 4.6 mm×150 mm) and a 30 min linear gradient of acetonitrile with 0.1% formic acid at a flow rate of 300 uL/min. A transition list of cysteine-containing peptides with expected drug-cysteine adducts were generated in Skyline software and exported to the QTRAP mass spectrometer to developed acquisition methods. Resultant raw data files generated in the QTRAP were imported back into Skyline for analysis and additional processing.

Data set [1] has as its system male C57BL/6 mice. Description: Cisplatin model of chemotherapy-induced peripheral neuropathy (CIPN), von Frey mechanical allodynia. The conditions noted are these: two cycles of 5 daily doses of 2.3 mg/kg followed by 5 days rest. It is filed as in vivo, mouse. How it is done:
Data were analyzed by two-way ANOVA repeated measures. Time: P<0.001; Group: P<0.001; Interaction P<0.001. **P<0.01 Tukey multiple comparison test. Data are from a representative experiment out of two with similar results.
Male C57/B16 mice (n=4 per group) were treated with cisplatin (two rounds of 5 daily doses of 2.3 mg/kg i.p. followed by 5 days of rest). […] Data were analyzed by two-way ANOVA repeated measures. Time: P<0.001; Group: P<0.001; Interaction P<0.01. **P<0.01 Tukey multiple comparison test.
Peripheral neuropathy has been observed with several small-molecule STAT3 inhibitors in clinical-stage development (Bendell et al., 2014; Genini et al., 2017; Ogura et al., 2015). […] This model was selected because it was shown previously that it is mediated by mitochondrial damage in the peripheral nervous system (Krukowski et al., 2017; Maj, Ma, Krukowski, Kavelaars & Heijnen, 2017). […] (FIG. 12).
Pain measurements and chemotherapy-induced peripheral neuropathy (CIPN).

Another data set relates to DRG transcriptome. Description: RNA-seq and IPA analysis of dorsal root ganglia of cisplatin-treated mice. It is filed as in vivo, mouse. To be noted: cisplatin vs. PBS. From the text:
Expression of 1,973 genes was changed in response to cisplatin when compared to the PBS mice (PBS vs. Cis; n=3 male mice per group). […] A cutoff of (−0.2<log 2 Fold Change <0.2) and p=0.1 was used for the analysis. […] Gray indicates effect cannot be predicted.
The mechanistic network of four regulators identified STAT3 as an intermediate regulator. […] For example, for the TP53 network, 14 regulators were part of the mechanistic network which together influence expression of 481 genes and out of these 481 genes, 64 target genes are controlled by STAT3.
RNA-seq and transcriptome analysis of dorsal root ganglion (DRG). […] Total RNA was isolated with the RNeasy MinElute Cleanup Kit (Qiagen, Hilden, Germany). Libraries were prepared with the Stranded mRNA-Seq kit (Kapa Biosystems, Wilmington, MA) following the manufacturer's guidelines. Stranded-mRNA seq was performed with a HiSeq4000 Sequencer (Illumina, San Diego, CA) with 76nt PE format by the RNA Sequencing Core at MD Anderson Cancer Center. Data analysis was performed as previously described (Chiu et al., 2018; Ma et al., 2019). Briefly, expression data of three samples per group were analyzed in R using bioconductor packages. STAR was used for alignment of paired-end reads to the mm10 version of the mouse reference genome; feature Counts was used to assign mapped sequence reads to genomic features, and DESeq2 was used to identify differentially expressed genes (padj<0.05). Quality check of raw and aligned reads was performed with FastQC and Qualimap. Next, we used Ingenuity Pathway Analysis (IPA; Qiagen Inc., https://www.qiagenbioinformatics.com/products/ingenuity-pathway-analysis/) for analysis of the canonical pathways implicated by cisplatin-induced transcriptome changes in DRG.

Data set [2] deals with male C57BL/6 mice. The conditions noted are these: Krukowski et al., 2017; cited from earlier work.
The test system of another data set is DU-145 cells. Description: Seahorse XF Cell Mito Stress Test, oxygen consumption rate (OCR). It is filed as cell-based, human. How it is done: FIGS. 1A-1C show the effects of STAT3 inhibitors on mitochondrial function. DU-145 cells were treated with the indicated STAT3 inhibitors at 30 μM for 2 Hrs.
DU-145 cells were treated with STAT3 inhibitors at 10-30 μM for 2 Hrs. Data are representative of 4 or more independent experiments.
ATP production, maximal respiration, proton leak, and spare respiratory capacity. […] Similarly.
Mitochondrial assays. DU-145 cells (2.5×10^4) were seeded per well in a XF24 plate and incubated at 37° C./5% CO2 in complete RPMI medium. After 12 Hrs complete medium was replaced with nutrient depleted four-day culture media: conditioned media (CM) and incubated for 4 Hrs. Cells were then treated for another 2 Hrs with STAT3 inhibitors prior to analysis using a Seahorse XF24 Analyzer. The Oxygen Consumption Rate (OCR) was measured in DMEM XF base medium containing 10 mM glucose and 2 mM glutamine and 1 mM pyruvate, before and after the sequential injection of oligomycin, FCCP and rotenone/antimycin A to final concentrations of 1 μM, 1 μM and 0.5 μM respectively. Basal and maximal respiration values were estimate by subtraction of OCR value after treatment of cells with rotenone and antimycin A (which reflects non-mitochondrial respiration) from OCR values in cells treated with oligomycin and FCCP respectively.

Data set [3] can be described thus: Glutathione reaction study (UV-HPLC stability with GSH). It counts as physicochemical. As for the experimental part:
The AUC of each compound measured at the times indicated by UV-HPLC and expressed as percent of the starting AUC of the peaks. Data are representative of four independently performed experiments.
Each reaction mixture was sampled at time 0 and every 5 minutes for 50 minutes; all samples were analyzed by HPLC. The amount of unreacted inhibitor was determined by measuring the area under the curve (AUC) and plotting this value as a percentage of the starting AUC as a function of time (FIG. 3). […] In contrast, there was no loss of TTI-101 in the presence of GSH.
Glutathione reaction studies. STAT3 inhibitors (10 ul of 10 mM stock in DMSO) were spiked into reaction buffer [50 mM HEPES pH7.5 containing 10 mM reduced glutathione (GSH)] the samples were mixed thoroughly and placed in an autosampler set at 20° C. The reactions were monitored by high performance liquid chromatography (HPLC) using an Exion LC Sciex unit equipped with a UV detector. The stationary phase used was a C18 Synergi™ 4 μm Fusion-RP 80 Å LC column (50×2 mm); the mobile phase was water (A) and acetonitrile (B). The elution process consisted of an isocratic step with 20% mobile phase B, followed by 80% B, for 2 minutes. The flow rate was maintained at 0.5 mL/min during the run. Measurements were conducted at intervals of 5 minutes for a period of 55 minutes total. The presence of the STAT3 inhibitors were quantified by calculating the area under the curves (AUCs) of the compound peaks at 260-295 nm.

A further data set has as its target T2, STAT3 (Homo sapiens, UniProt P40763).
T2 construct: STAT3 (127-722) cDNA was cloned into a pET15b vector; made in house; host or cells: E. coli BL21 (DE), pET15b
Description: STAT3 alkylation study, high resolution LC-MS/MS for unknown chemical adducts. It counts as biochemical. The conditions noted are these: vs. STAT3 incubated with DMSO. As for the experimental part:
FIGS. 11A-11C show alkylation of STAT3βtr by iodoacetamide and NEM. […] The dotted line indicates the cutoff for a significant Z-score.
STAT3 alkylation studies. Purified recombinant core fragment of STAT3β protein in ammonium bicarbonate buffer (10 μM) was mixed with each compound at a final concentration of 100 μM. The protein mixture was then incubated at 37° C. overnight. Samples were reduced with 5 mM DTT at 37 °C for one hour and further alkylated with iodoacetamide (15 mM) for 30 minutes at RT in the dark, followed by digestion with trypsin gold in a dry incubator at 37° C. overnight. […]
High resolution LC/MS. An aliquot of the tryptic digests of STAT3 proteins treated with DMSO (control) and those treated with Stattic and TTI101 were analyzed by LC-MS/MS on an Ultimate 3000 RSLC-Nano chromatograph interfaced to an Orbitrap Fusion high-resolution mass spectrometer (Thermo Scientific, Waltham MA). All MS/MS data were analyzed using Sequest-HT (Thermo Scientific). […] To access for potential unknown modifications, the data was analyzed in MaxQuant using the dependent peptide search option (Tyanova, Temu & Cox, 2016). All peptides output list was analyzed by comparing Stattic, TTI101 and TTI101ox with DMSO treated samples as described in (Antinori, Michelot, Lescuyer, Müller & Acosta-Martin, 2019).

T1 sequence (P40763 127-722 isoform P40763-3): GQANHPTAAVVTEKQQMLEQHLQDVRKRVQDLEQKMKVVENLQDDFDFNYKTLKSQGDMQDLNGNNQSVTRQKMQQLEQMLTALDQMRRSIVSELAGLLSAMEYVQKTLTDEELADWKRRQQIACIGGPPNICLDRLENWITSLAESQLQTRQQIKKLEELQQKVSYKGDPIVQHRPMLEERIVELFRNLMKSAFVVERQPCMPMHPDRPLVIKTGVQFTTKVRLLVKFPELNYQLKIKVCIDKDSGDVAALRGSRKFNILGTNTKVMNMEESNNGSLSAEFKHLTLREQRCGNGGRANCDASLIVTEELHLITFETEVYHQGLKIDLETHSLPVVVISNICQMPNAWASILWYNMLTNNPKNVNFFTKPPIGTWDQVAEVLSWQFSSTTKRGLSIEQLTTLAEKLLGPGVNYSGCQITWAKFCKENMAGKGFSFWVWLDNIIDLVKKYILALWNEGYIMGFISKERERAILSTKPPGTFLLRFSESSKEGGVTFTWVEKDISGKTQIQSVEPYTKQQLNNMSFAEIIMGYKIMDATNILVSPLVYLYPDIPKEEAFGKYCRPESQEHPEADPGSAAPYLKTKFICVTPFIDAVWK
T2 sequence (P40763 127-722 isoform P40763-3): as above

Regarding `CCN1C(=O)C=CC1=O` [NEM, N-ethylmaleimide], the “number of STAT3βtr peptides alkylated” value on STAT3βtr is 6 peptides.

For the compound `N.N.[Cl][Pt][Cl]` [cisplatin, reference compound], the “induction of mechanical allodynia” value in the data set on male C57BL/6 mice [1] was “induces mechanical allodynia”. Moreover, in the data set with DRG transcriptome, the “VEGF signaling (IPA comparison analysis)” value is “predicted activation of VEGF signaling”, the “genes down in DRG” value worked out at 675 genes, the “genes up in DRG” value was 1,298 genes and the “genes with changed expression in DRG” value is given as 1,973 genes. In the data set with male C57BL/6 mice [2], the “duration of induced mechanical allodynia” value was “at least 75 days”.

On to `C[C@H]1COC2=C1C(=O)C(=O)c1c2ccc2c1CCCC2(C)C` [cryptotanshinone], for which the “reduction in ATP level production” value in the data set with DU-145 cells (30 μM) is reported as 50%.

`NC(=O)CI` [iodoacetamide]: the “number of STAT3βtr peptides alkylated” value at STAT3βtr was 6 peptides.

On to `O=[N+]([O-])c1ccc2c(c1)S(=O)(=O)C=C2` [Stattic], for which the “OCR curves compared to DMSO control” value in the data set on DU-145 cells (2 Hrs, 10 and 30 μM (3-fold and 10-fold TTI-101 IC50)) is listed as “did not consistently alter the OCR curves”. The “unreacted inhibitor level (AUC) as percent of baseline in the presence of GSH” value in data set [3] (100 μM in 50 mM HEPES pH 7.5, 10 mM GSH, within 5 minutes) is reported as less than 10%. The “inhibitor level in the absence of GSH” value in data set [3] (without GSH) is on record as “remaining constant”. Also, the “adducts on Cys containing STAT3 peptides (alkylation), targeted LC-MS/MS” value at STAT3βtr (STAT3βtr 10 μM, compound 100 μM, 37° C. overnight) is reported as “covalent modification of STAT3”. Besides, the “alkylated peptides, targeted and untargeted LC-MS/MS” value on STAT3βtr (STAT3βtr tryptic digests, Qtrap 5500 and Orbitrap, FIGS. 4A-4C (Stattic)) was “eight”. Also, the “chemical adducts / mass shifts of STAT3 peptides, untargeted high resolution LC-MS/MS” value on STAT3 is “adducts were detected”.
